Where two headings read alike, the source gives them in different places.
Legend:
Bacteroides corrodens [1] = assay: Agar-dilution MIC (anaerobes); format: cell-based; details: Table 12; 24-hour; B. corrodens 1874
Source text: (§1) The A41030 antibiotics, factors A, B, and C, are active against a genus of anaerobic bacteria identified as Bacteroides sp., the 24-hour MIC values being determined by the agar-dilution method, and are set forth in Table 12, which follows.

Bacteroides vulgatis = assay: Agar-dilution MIC (anaerobes); format: cell-based; details: Table 12; 24-hour; B. vulgatis 1563
Source text: as §1

[2] = tested on: Peptostreptococcus intermedius; assay: Agar-dilution MIC (anaerobes); format: cell-based; details: Table 15
Bacteroides corrodens [3] = assay: Agar-dilution MIC (anaerobes); format: cell-based; details: Table 14; Bacteroides corrodens 1874
Solubility in solvents = format: physicochemical; details: solvents as named
Source text: The seven antibiotic factors are recovered from the fermentation and are obtained as a mixture, the A41030 complex. It will be recognized that the ratio of the factors in the A41030 complex will vary, depending upon the fermentation conditions used. The individual factors […], and G are separated and isolated as individual compounds, as hereinafter described.

Peptococcus prevoti = assay: Agar-dilution MIC (anaerobes); format: cell-based
[4] = tested on: Peptostreptococcus anaerobius; assay: Agar-dilution MIC (anaerobes); format: cell-based
B. thetaiotaomicron = format: cell-based
Source text: (§2) The agar-dilution procedure described by the International Collaborative study (ICS) group was used to determine the minimum inhibitory concentrations (MIC's).

Bacteroides fragilis = assay: Agar-dilution MIC (anaerobes); format: cell-based
Source text: as §2

[5] = Electrometric titration (pKa); format: physicochemical; details: electrometric titration in 66% dimethylformamide in water
S. pyogenes [6] = assay: Experimental bacterial infection in mice, subcutaneous ED50; format: in vivo; details: two doses subcutaneously
Method: (§3) All of the A41030 factors tested have shown in vivo antimicrobial activity against experimental bacterial infections. When two doses of test compound were administered subcutaneously to mice in illustrative infections, the activity observed is measured as an ED50 value [effective dose in mg./kg. to protect fifty percent of the test animals: See Warren Wick, et al., J. Bacteriol. 81, 233-235 (1961)].

S. pneumoniae = assay: as above; format: in vivo; details: two doses subcutaneously
Method: as §3

Staph. aureus = assay: as above; format: in vivo; details: two doses subcutaneously
Method: as §3

[7] = tested on: Fusobacterium necrophorum; assay: Agar-dilution MIC (anaerobes); format: cell-based; details: Table 14; Fusobacterium necrophorum 6054A
Streptococcus pyogenes = assay: Agar-dilution MIC; format: cell-based; details: Table 17; 24 hours; Streptococcus pyogenes C203
Source text: as §2

[8] = tested on: Streptococcus sp. (Group D); assay: Agar-dilution MIC; format: cell-based; details: Table 17, 24 hours
Source text: as §2

[9] = tested on: Peptococcus asaccharolyticus; assay: Agar-dilution MIC (anaerobes); format: cell-based; details: Table 15
Method: (§4) The MIC values were determined by the agar-dilution method, and are recorded in Table 15, which follows.

S. pyogenes [10] = assay: In vivo oral activity against S. pyogenes in mice
Clostridium perfringens = format: cell-based; details: Table 14; Clostridium perfringens 81
Clostridium difficile [11] = format: cell-based; details: Table 16
Source text: The A41030 antibiotic factors A, B, C, D, E, F, and G, are also active against a number of strains of Clostridium difficile, as determined by the agar-dilution method.

Clostridium difficile [12] = format: cell-based; details: Table 14; Clostridium difficile 2994
Pc. constellatus = assay: Agar-dilution MIC (anaerobes); format: cell-based, Peptococcus constellatus; details: Table 15; Pc. constellatus 1468
Method: as §4

[13] = tested on: Bacteroides melaninogenicus; assay: Agar-dilution MIC (anaerobes); format: cell-based; details: Table 14; Bacteroides melaninogenicus 2736

## A41030 factor C
Bacteroides corrodens [1]
  MIC: 32 µg/mL
Bacteroides vulgatis
  MIC: 32 µg/mL
[2]; Ps. intermedius 1264
  MIC: ≤ 0.03 µg/mL
[2]; Ps. intermedius 1624
  MIC: 1.0 µg/mL
Bacteroides corrodens [3]
  MIC: 32 µg/mL
Solubility in solvents
  Solubility: soluble in the same solvents as factor A
Peptococcus prevoti; Table 14, Peptococcus prevoti 1281
  MIC: ≤ 0.25 µg/mL
Peptococcus prevoti; Table 15, Pc. prevoti 1281
  MIC: 1.0 µg/mL
Peptococcus prevoti; Table 15, Pc. prevoti 1293
  MIC: 0.5 µg/mL
Peptococcus prevoti; Table 15, Pc. prevoti 1407
  MIC: 1.0 µg/mL
[4]; Table 14, Peptostreptococcus anaerobius 1428
  MIC: ≤ 0.25 µg/mL
[4]; Table 15, Ps. anaerobius 52
  MIC: 0.25 µg/mL
[4]; Table 15, Ps. anaerobius 59
  MIC: 0.25 µg/mL
[4]; Table 15, Ps. anaerobius 1418
  MIC: ≤ 0.03 µg/mL
[4]; Table 15, Ps. anaerobius 1428
  MIC: 0.25 µg/mL
[4]; Table 15, Ps. anaerobius 1451
  MIC: 0.25 µg/mL
[4]; Table 15, Ps. anaerobius 1477
  MIC: 0.25 µg/mL
B. thetaiotaomicron; Table 12, 24-hour, B. thetaiotaomicron 1438
  MIC: 32 µg/mL
B. thetaiotaomicron; Table 12, 24-hour, B. thetaiotaomicron 1900A
  MIC: 128 µg/mL
B. thetaiotaomicron; Table 14, Bacteroides thetalotaomicron 1438
  MIC: 64 µg/mL
Bacteroides fragilis; Table 12, 24-hour, B. fragilis 2
  MIC: 32 µg/mL
Bacteroides fragilis; Table 12, 24-hour, B. fragilis 9
  MIC: 32 µg/mL
Bacteroides fragilis; Table 12, 24-hour, B. fragilis 103
  MIC: 32 µg/mL
Bacteroides fragilis; Table 12, 24-hour, B. fragilis 104
  MIC: 32 µg/mL
Bacteroides fragilis; Table 12, 24-hour, B. fragilis 106
  MIC: 32 µg/mL
Bacteroides fragilis; Table 12, 24-hour, B. fragilis 107
  MIC: 32 µg/mL
Bacteroides fragilis; Table 12, 24-hour, B. fragilis 108
  MIC: 64 µg/mL
Bacteroides fragilis; Table 12, 24-hour, B. fragilis 110
  MIC: 64 µg/mL
Bacteroides fragilis; Table 12, 24-hour, B. fragilis 111
  MIC: 32 µg/mL
Bacteroides fragilis; Table 12, 24-hour, B. fragilis 112
  MIC: 32 µg/mL
Bacteroides fragilis; Table 12, 24-hour, B. fragilis 113
  MIC: 32 µg/mL
Bacteroides fragilis; Table 12, 24-hour, B. fragilis 1451
  MIC: 64 µg/mL
Bacteroides fragilis; Table 12, 24-hour, B. fragilis 1470
  MIC: 64 µg/mL
Bacteroides fragilis; Table 12, 24-hour, B. fragilis 1877
  MIC: 32 µg/mL
Bacteroides fragilis; Table 12, 24-hour, B. fragilis 9032
  MIC: 32 µg/mL
Bacteroides fragilis; Table 14, Bacteroides fragilis 1877
  MIC: 16 µg/mL
Bacteroides fragilis; Table 14, Bacteroides fragilis 1936B
  MIC: 32 µg/mL
[5]
  pKa, first titratable group: about 5.5
S. pyogenes [6]
  ED50: 10.4 mg/kg
S. pneumoniae
  ED50: 6.7 mg/kg
Staph. aureus
  ED50: < 0.43 mg/kg
[7]
  MIC: 16 µg/mL
Streptococcus pyogenes
  MIC: 1 µg/mL
[8]; Streptococcus sp. Group D 9960
  MIC: 4 µg/mL
[8]; Streptococcus sp. Group D X66
  MIC: 2 µg/mL
[9]; Pc. asaccharolyticus 1302
  MIC: 0.125 µg/mL
[9]; Pc. asaccharolyticus 1344
  MIC: 1.0 µg/mL
S. pyogenes [10]
  in vivo oral activity: > 300 mg./kg.X2
Clostridium perfringens
  MIC: 1.0 µg/mL
Clostridium difficile [11]; C. difficile 78
  MIC: 1.0 µg/mL
Clostridium difficile [11]; C. difficile 107B
  MIC: 1.0 µg/mL
Clostridium difficile [11]; C. difficile 111F
  MIC: 2 µg/mL
Clostridium difficile [11]; C. difficile 1153
  MIC: 2 µg/mL
Clostridium difficile [11]; C. difficile 2634
  MIC: 2 µg/mL
Clostridium difficile [11]; C. difficile 3424-5B
  MIC: 1.0 µg/mL
Clostridium difficile [11]; C. difficile 3816
  MIC: 2 µg/mL
Clostridium difficile [11]; C. difficile 3950
  MIC: 2 µg/mL
Clostridium difficile [11]; C. difficile 6890
  MIC: 2 µg/mL
Clostridium difficile [11]; C. difficile 8484
  MIC: 1.0 µg/mL
Clostridium difficile [11]; C. difficile A-194
  MIC: 2 µg/mL
Clostridium difficile [11]; C. difficile A-195
  MIC: 1.0 µg/mL
Clostridium difficile [11]; C. difficile A-196
  MIC: 2 µg/mL
Clostridium difficile [11]; C. difficile A-279
  MIC: 2 µg/mL
Clostridium difficile [11]; C. difficile A-280
  MIC: 1.0 µg/mL
Clostridium difficile [11]; C. difficile A-281
  MIC: 2 µg/mL
Clostridium difficile [11]; C. difficile WAL-2112
  MIC: 2 µg/mL
Clostridium difficile [11]; C. difficile WAL-3657
  MIC: 2 µg/mL
Clostridium difficile [11]; C. difficile WAL-4268
  MIC: 1.0 µg/mL
Clostridium difficile [12]
  MIC: 16 µg/mL
Pc. constellatus
  MIC: 0.5 µg/mL
[13]
  MIC: 4 µg/mL

From patent US4559323A, “A41030 Antibiotics” (Eli Lilly and Company, priority 1984, dated 1985)
